Laboratory results taken from patent publication US20100184722A1, “INCLUSION COMPLEXES OF ALPHA-CYCLODEXTRIN AND SILDENAFIL SALT” (Shimoda Biotech (Pty) Ltd, priority 2008, published 2010).
Where a name gives a salt, the structure may show the parent alone.

Legend:
Assay type in all cases: physicochemical
[1] = Solubility of sildenafil base in ddH2O with cyclodextrins (24 h shaking, HPLC); details: ACD 0-100 mg/ml, GCD 0-200 mg/ml, HPBCD 0-200 mg/ml, BCD 0-15 mg/ml
Description: These samples were shaken for 24 hours at 200 rpm. Excess sildenafil citrate was present in each of the vials for the duration of the solubility study. Following the shaking, the vial contents were filtered through 0.45 μm filters to remove any excess solute. The remaining solution was assayed by HPLC for sildenafil base content. […] This is in agreement with the findings of Omani, et al. (2006).

[2] = Solubility of sildenafil citrate in ddH2O with cyclodextrins (24 h shaking, HPLC); details: ACD 0-100 mg/ml, GCD 0-200 mg/ml, HPBCD 0-200 mg/ml, BCD 0-15 mg/ml
Description: Solutions were prepared by adding 50 mg of sildenafil citrate to ddH2O samples with varying quantities of the different cyclodextrins. FIG. 1B depicts solubility data of sildenafil citrate complexed with beta-cyclodextrin (BCD) at 0-15 mg/ml These samples were shaken for 24 hours at 200 rpm. Excess sildenafil citrate was present in each of the vials for the duration of the solubility study. Following the shaking, the vial contents were filtered through 0.45 μm filters to remove any excess solute. The remaining solution was assayed by HPLC for sildenafil citrate content.

[3] = pH dependence of sildenafil citrate solubility in phosphate-citrate buffer with or without cyclodextrin; details: phosphate-citrate buffer (0.1M), pH 3.0-8.0
Description: Phosphate-citrate buffer (0.1M) solutions are prepared with pH's of 3.0; 4.0, 5.0; 6.0; 7.0 and 8.0 in ddH2O (de-oxygenated water by purging with nitrogen gas). […] The maximal aqueous solubility for sildenafil citrate appears to occur at pH 5.

Row | aqueous solubility of sildenafil base in the presence of cyclodextrins vs no cyclodextrin [1] | aqueous solubility of sildenafil citrate in the presence of cyclodextrins vs no cyclodextrin [2] | pH of maximal aqueous solubility [3] | SMILES
1 | improved solubility | – | – | CCCc1nn(C)c2c(=O)[nH]c(-c3cc(S(=O)(=O)N4CCN(C)CC4)ccc3OCC)nc12 [sildenafil base, 5-[2-ethoxy-5-(4-methylpiperazin-1-yl)sulfonylphenyl]-1-methyl-3-propyl-4H-pyrazolo[5,4-e]pyrimidin-7-one]
2 | – | improved solubility | 5 | CCCc1nn(C)c2c(=O)[nH]c(-c3cc(S(=O)(=O)N4CCN(C)CC4)ccc3OCC)nc12 [sildenafil citrate, 1-[[3-(6,7-dihydro-1-methyl-7-oxo-3-propyl-1H15-pyrazolo[4,3-d]pyrimidin-5-yl)-4-ethoxyphenyl]sulfonyl]-4-methylpiperazine citrate]
